experiment: T3 promoter assay cell test (luciferase reporter); assay type: cell-based; details: Homo sapiens; HepG2 cells, luciferase induction, costimulator retinoic acid, incubation 48 or 72 hours, four replicates
Description: Their activity can be tested, for example, in vitro by the following T3 promoter assay cell test:
The test is carried out with a stably transfected human HepG2 hepatocarcinoma cell which expresses a luciferase gene under the control of a thyroid hormone-regulated promoter. The vector used for the transfection has upstream of the luciferase gene a minimal thymidine kinase promoter with a thyroid hormone-responsive element (TRE) which consists of two inverted palindromes each of 12 bp and of an 8 bp spacer.
For the test, the cell cultures are seeded in Eagle's minimal essential medium in 96-well plates with the following additions: glutamine, tricine, sodium pyruvate, nonessential amino acids, insulin, selenium and transferrin. The cultures are grown at 37° C. with a 10% CO2 atmosphere for 48 hours. Then serial dilutions of test substance or reference compound (T3, T4) and costimulator retinoic acid are added to the test cultures and the latter are incubated as previously for a further 48 or 72 hours. Each substance concentration is tested in four replicates. To determine the luciferase induced by T3 or other substances, the cells are subsequently lysed by adding a Triton- and luciferin-containing buffer and measured immediately in a luminometer. The EC50 values for each compound are calculated (see Table 1).

Question: Which EC50 does the source give for `Cc1cc(NC(=O)C(=O)O)cc(C)c1Cc1ccc(O)c(C(C)C)c1` [Example 2, 2-[4-(4-Hydroxy-3-isopropylbenzyl)-3,5-dimethylanilino]-2-oxoacetic acid] here?
Answer: The EC50 was 0.14 nM.

Question: For `Cc1cc(NC(=O)C(=O)O)cc(C)c1Cc1ccc(O)c(Cc2ccc(F)cc2)c1` [Example 4, ({4-[3-(4-Fluorobenzyl)-4-hydroxybenzyl]-3,5-dimethylphenyl}amino)(oxo)acetic acid], which EC50 is on record?
Answer: The EC50 was 0.23 nM.

Question: For `COc1ccc(Cc2c(C)cc(NC(=O)C(=O)O)cc2C)cc1Cc1ccc(F)cc1` [Example 5, ({4-[3-(4-Fluorobenzyl)-4-methoxybenzyl]-3,5-dimethylphenyl}amino)(oxo)acetic acid], which EC50 is on record?
Answer: Its EC50 is 4.3 nM.
